Results reported in the supplement of paper PMC6045584.
± gives the standard deviation of the averaged measurements.

Experiments:
ETOPOSIDE = compound: COc1cc([C@@H]2c3cc4c(cc3[C@@H](O[C@@H]3O[C@@H]5CO[C@@H](C)O[C@H]5[C@H](O)[C@H]3O)[C@H]3COC(=O)[C@H]23)OCO4)cc(OC)c1O [ETOPOSIDE]; assay: surviving fraction relative to DMSO-only wells; higher = less growth inhibition; conditions: exposure time: 5 days
How it was run: (§1)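 Surviving fraction is CellTiter-Glo luminescence divided by the median of wells given DMSO only. For this, log-phase tumour cell lines went into 384-well plates at 250–500 cells per well and, 24 hours later, into five days of continuous inhibitor exposure at 0.5, 1, 5, 10, 50, 100, 500 and 1000 nM. Lines were screened three times and retained only if replicate Pearson r >0.7 and median Z' >0.3.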

AZD4547 = compound: COc1cc(CCc2cc(NC(=O)c3ccc(N4CC(C)NC(C)C4)cc3)n[nH]2)cc(OC)c1 [AZD4547]; assay: as above; conditions: exposure time: 5 days
How it was run: as §1

| Test System | surviving fraction (ETOPOSIDE; 0.5 nM) | surviving fraction (ETOPOSIDE; 1 nM) | surviving fraction (ETOPOSIDE; 5 nM) | surviving fraction (ETOPOSIDE; 10 nM) | surviving fraction (ETOPOSIDE; 50 nM) | surviving fraction (ETOPOSIDE; 100 nM) | surviving fraction (ETOPOSIDE; 500 nM) | surviving fraction (ETOPOSIDE; 1000 nM) | surviving fraction (AZD4547; 0.5 nM) | surviving fraction (AZD4547; 1 nM) | surviving fraction (AZD4547; 5 nM) | surviving fraction (AZD4547; 10 nM) | surviving fraction (AZD4547; 50 nM) | surviving fraction (AZD4547; 100 nM) | surviving fraction (AZD4547; 500 nM) | surviving fraction (AZD4547; 1000 nM) |
| --- | --- | --- | --- | --- | --- | --- | --- | --- | --- | --- | --- | --- | --- | --- | --- | --- |
| C33A CERVIX | 0.794 ± 0.11 | 0.967 ± 0.064 | 0.918 ± 0.016 | 1.05 ± 0.071 | 0.923 ± 0.045 | 0.726 ± 0.024 | 0.251 ± 0.027 | 0.155 ± 0.01 | 0.847 ± 0.084 | 0.948 ± 0.074 | 0.96 ± 0.027 | 0.969 ± 0.099 | 0.915 ± 0.015 | 0.953 ± 0.1 | 0.811 ± 0.024 | 0.75 ± 0.086 |
| CAL72 BONE | 1.05 ± 0.026 | 1.05 ± 0.037 | 1.06 ± 0.048 | 1.05 ± 0.05 | 1.07 ± 0.051 | 1.07 ± 0.039 | 0.684 ± 0.029 | 0.358 ± 0.03 | 1.08 ± 0.022 | 1.096 ± 0.0035 | 1.05 ± 0.043 | 0.791 ± 0.067 | 0.331 ± 0.028 | 0.257 ± 0.013 | 0.19 ± 0.031 | 0.158 ± 0.026 |
| G292 BONE | 0.964 ± 0.035 | 0.976 ± 0.041 | 1 ± 0.087 | 0.978 ± 0.06 | 0.942 ± 0.02 | 0.796 ± 0.014 | 0.437 ± 0.019 | 0.352 ± 0.012 | 0.93 ± 0.062 | 0.917 ± 0.035 | 0.801 ± 0.018 | 0.566 ± 0.0083 | 0.207 ± 0.0036 | 0.173 ± 0.011 | 0.138 ± 0.021 | 0.107 ± 0.0059 |
| HCC1395 BREAST | 0.983 ± 0.081 | 0.994 ± 0.1 | 1.02 ± 0.12 | 1 ± 0.12 | 1.06 ± 0.14 | 1.04 ± 0.056 | 0.937 ± 0.12 | 0.926 ± 0.13 | 0.849 ± 0.077 | 0.904 ± 0.088 | 0.849 ± 0.07 | 0.748 ± 0.11 | 0.79 ± 0.072 | 0.804 ± 0.1 | 0.698 ± 0.06 | 0.762 ± 0.19 |
| HUO3N1 BONE | 0.956 ± 0.017 | 0.936 ± 0.05 | 0.982 ± 0.06 | 1.01 ± 0.042 | 1.01 ± 0.019 | 0.96 ± 0.057 | 0.519 ± 0.01 | 0.376 ± 0.012 | 1.01 ± 0.05 | 0.976 ± 0.015 | 1.05 ± 0.059 | 0.95 ± 0.072 | 0.85 ± 0.022 | 0.816 ± 0.018 | 0.693 ± 0.04 | 0.608 ± 0.018 |
| LNCAP PROSTATE | 0.86 ± 0.18 | 0.951 ± 0.078 | 0.868 ± 0.13 | 0.94 ± 0.058 | 0.9023 ± 0.0057 | 0.77 ± 0.051 | 0.438 ± 0.046 | 0.301 ± 0.025 | 0.881 ± 0.092 | 0.995 ± 0.12 | 0.861 ± 0.036 | 0.829 ± 0.043 | 0.821 ± 0.13 | 0.903 ± 0.037 | 0.752 ± 0.11 | 0.857 ± 0.25 |
| SCC003 HEADNECK | 1.04 ± 0.092 | 1.05 ± 0.13 | 1.11 ± 0.069 | 1.07 ± 0.051 | 1.1 ± 0.063 | 1.08 ± 0.068 | 0.849 ± 0.15 | 0.604 ± 0.041 | 1.05 ± 0.091 | 1.03 ± 0.014 | 1.13 ± 0.06 | 1.1 ± 0.083 | 1.07 ± 0.021 | 1.1 ± 0.065 | 1.02 ± 0.088 | 0.996 ± 0.071 |
